Experimental data taken from the NIST ThermoML archive (doi:10.1021/je200121f).

Columns and labels:
[1] = refractive index (Na D-line) (dimensionless); xn = mol fraction of the nth substance listed; details: 101 kPa, Liquid, Standard Abbe refractometry
[2] = xn = mol fraction of the nth substance listed; details: for surface tension liquid-gas: Ring tensiometer; for viscosity / speed of sound / mass density: 101 kPa, Liquid; for viscosity: Capillary tube (Ostwald / Ubbelohde) method; for speed of sound: Sing-around technique in a fixed-path interferometer; for mass density: Vibrating tube method

C[C@H](O)CN [(2S)-1-amino-2-propanol] + CN1CCCC1=O
Details	mass density, [2] [kg/m3]	refractive index, [1]	speed of sound, [2] [m/s]	surface tension liquid-gas, [2] [mN/m]	viscosity, [2] [mPa·s]
293.15 K, x2 = 0	960.8	1.448	1560.8	37.6	31.67
293.15 K, x2 = 0.1034	968.2	1.4503	1553.5	38.1	18.96
293.15 K, x2 = 0.2008	975.3	1.4523	1549.1	38.5	12.72
293.15 K, x2 = 0.3001	982.8	1.4545	1547.5	39	8.746
293.15 K, x2 = 0.4002	989.5	1.4567	1546	39.5	7.694
293.15 K, x2 = 0.4978	996.5	1.4585	1546.2	40	6.542
293.15 K, x2 = 0.5943	1003.3	1.4607	1547.4	40.7	5.578
293.15 K, x2 = 0.7	1010.9	1.4632	1550.9	41.2	4.249
293.15 K, x2 = 0.7993	1018.1	1.4655	1554.8	41.5	3.533
293.15 K, x2 = 0.8913	1025	1.4675	1559.4	42.1	3.098
303.15 K, x2 = 0	952.8	1.4442	1528.3	36.9	17.71
303.15 K, x2 = 0.1034	960	1.4464	1519.6	37.3	11.49
303.15 K, x2 = 0.2008	966.9	1.4484	1514.7	37.8	8.051
303.15 K, x2 = 0.3001	974.2	1.4505	1511.8	38.3	5.78
303.15 K, x2 = 0.4002	980.8	1.4527	1510	38.8	5.21
303.15 K, x2 = 0.4978	987.7	1.4547	1509.4	39.2	4.723
303.15 K, x2 = 0.5943	994.5	1.4567	1510.3	39.5	4.271
303.15 K, x2 = 0.7	1002	1.4591	1512.8	40.1	3.395
303.15 K, x2 = 0.7993	1009.2	1.4614	1516.8	40.7	2.909
303.15 K, x2 = 0.8913	1016.1	1.4635	1520.6	41	2.576
313.15 K, x2 = 0	944.7	1.4401	1495.7	36.3	10.65
313.15 K, x2 = 0.1034	951.7	1.4423	1486	36.8	7.301
313.15 K, x2 = 0.2008	958.4	1.4445	1480.5	37.3	5.308
313.15 K, x2 = 0.3001	965.6	1.4464	1476.6	37.7	4.045
313.15 K, x2 = 0.4002	972.1	1.4488	1474.8	38.1	3.725
313.15 K, x2 = 0.4978	978.8	1.4506	1472.8	38.7	3.448
313.15 K, x2 = 0.5943	985.6	1.4528	1473.5	39	3.375
313.15 K, x2 = 0.7	993.1	1.4548	1475.4	39.5	2.775
313.15 K, x2 = 0.7993	1000.3	1.4572	1479.1	40.2	2.458
313.15 K, x2 = 0.8913	1007.2	1.4594	1482.6	40.4	2.168
323.15 K, x2 = 0	936.5	1.436	1462.9	35.9	6.961
323.15 K, x2 = 0.1034	943.2	1.4382	1452.1	36.2	4.793
323.15 K, x2 = 0.2008	949.8	1.4401	1446	36.6	3.499
323.15 K, x2 = 0.3001	956.9	1.4421	1441.6	37.1	2.939
323.15 K, x2 = 0.4002	963.3	1.4442	1440.5	37.6	2.649
323.15 K, x2 = 0.4978	969.9	1.4464	1436.8	38	2.438
323.15 K, x2 = 0.5943	976.7	1.4482	1436.8	38.4	2.731
323.15 K, x2 = 0.7	984.2	1.4506	1438.4	38.8	2.317
323.15 K, x2 = 0.7993	991.4	1.4529	1441.7	39.2	2.073
323.15 K, x2 = 0.8913	998.2	1.4552	1445.1	39.5	1.861

CC(O)CNCC(C)O (stereo not given) [N-(2-hydroxypropyl)-2-hydroxy-1-propanamine] + CN1CCCC1=O
Details	mass density, [2] [kg/m3]	refractive index, [1]	speed of sound, [2] [m/s]	surface tension liquid-gas, [2] [mN/m]	viscosity, [2] [mPa·s]
293.15 K, x2 = 0.7804	1021.9	1.4675	1535.6	39.7	4.857
293.15 K, x2 = 0.8882	1026.8	1.4682	1548.8	41.3	2.943
303.15 K, x2 = 0.4695	1006	1.4608	1483.8	37.1	20.25
303.15 K, x2 = 0.5721	1007.3	1.4616	1486.6	37.6	10.57
303.15 K, x2 = 0.6754	1010.8	1.4623	1494.7	38.3	6.229
303.15 K, x2 = 0.7804	1013.4	1.4635	1499.4	39	3.694
303.15 K, x2 = 0.8882	1018.2	1.4648	1511.9	40	2.371
313.15 K, x2 = 0.2764	993.1	1.4558	1443.5	36	38.27
313.15 K, x2 = 0.3733	994.5	1.4563	1445	36.2	21.14
313.15 K, x2 = 0.4695	997.8	1.4567	1450.8	36.7	11.24
313.15 K, x2 = 0.5721	998.9	1.4576	1453.3	37.2	7.051
313.15 K, x2 = 0.6754	1002.3	1.4582	1460.3	37.9	4.495
313.15 K, x2 = 0.7804	1004.8	1.4594	1463.7	38.5	2.89
313.15 K, x2 = 0.8882	1009.4	1.4607	1474.9	39.5	1.943
323.15 K, x2 = 0	984.1	1.4512	1420.3	34.5	125.73
323.15 K, x2 = 0.1049	984	1.451	1414.2	34.9	61.14
323.15 K, x2 = 0.1898	984.4	1.4511	1411.8	35.1	35.41
323.15 K, x2 = 0.2764	985.1	1.452	1412.2	35.1	20.93
323.15 K, x2 = 0.3733	986.4	1.4524	1413	35.3	12.67
323.15 K, x2 = 0.4695	988.2	1.4528	1415.4	36	7.412
323.15 K, x2 = 0.5721	990.6	1.4535	1419.6	36.5	5.022
323.15 K, x2 = 0.6754	993.5	1.4541	1424.3	37.1	3.42
323.15 K, x2 = 0.7804	996.8	1.4553	1428.6	37.7	2.33
323.15 K, x2 = 0.8882	1000.7	1.4565	1438.7	38.7	1.631
